Experiments:
[1] = system: panelists (saltiness intensity); assay: Descriptive analysis of saltiness intensity of topically coated potato chip samples (sample sets 3 and 4), 15-point scale; assay type: in vivo, human; conditions: for salt-enhancing activity on potato chips: applied topically (as mixture) to 20% and 40% salt reduced potato chips at the 1x dosage
Source text: (§1) The terms “saltiness,” “saltiness intensity,” and “mean saltiness intensity” may refer to the saltiness intensity of a compound, a composition, and/or a food product determined by an individual tasting a sample of the compound, the composition, and/or the food product and rating its saltiness intensity using a designated scale, such as the 15-point saltiness scale described herein.
(§2) Next, the panelists conducted descriptive analysis to evaluate the saltiness intensity of the following four sample sets.
(3) 1 g potato chip samples with 20% reduction in NaCl (12.3 g NaCl/kg) and 40% reductions in NaCl (9.2 g NaCl/kg), relative to traditional potato chips (15.4 g NaCl/kg); and
(4) 1 g potato chip samples at 20% and 40% salt reductions (relative to standard potato chips) with the addition of a mixture of the identified saltiness-enhancing compounds topically applied to potato chips at the endogenous level of the analyzed unsalted potato chips (1×).
(§3) Panelist evaluation of sample set (3): Twelve panelists rated saltiness intensity using a 15-point scale, in duplicate. The saltiness references provided were 0 points (water), 2.5 points (0.2% NaCl), 5 points (0.35% NaCl), and 8.5 points (0.5% NaCl).
Panelist evaluation of sample set (4): Nine panelists rated saltiness intensity using a 15-point scale, in duplicate. The saltiness references provided were 0 points (water), 2.5 points (0.2% NaCl), 5 points (0.35% NaCl), and 8.5 points (0.5% NaCl). […] Thus, application of one or more of the identified saltiness-perception enhancing compounds to a food product may enable a reduction of up to about 40 wt % of the amount of salt applied to a food product while eliminating or attenuating the concomitant reduction in saltiness that would otherwise occur.

[2] = system: panelists (saltiness intensity); assay: Descriptive analysis of saltiness intensity of aqueous salt solutions (sample sets 1 and 2), 15-point scale; assay type: in vivo, human; conditions: for saltiness enhancement in salt solutions: 1x dosage level, 3.52 g NaCl/L (20% NaCl reduction), Tukey HSD alpha 0.05
Source text: as §1, §2
(1) 2 mL samples of aqueous salt solutions with a 20% reduction in NaCl (3.52 g NaCl/L H2O) and 40% reduction in NaCl (2.64 NaCl/L H2O), relative to 2 mL of a control sample having a simulated saltiness intensity of traditional potato chips (4.40 g NaCl/L H2O);
(2) 2 mL samples of pH 6.2-6.5 aqueous salt solutions at the 20% NaCl reduction level (3.52 g NaCl/L H2O) with the addition of individual ones of the identified saltiness-enhancing compounds, where the compound dosage was at the endogenous level of the analyzed unsalted potato chips (1×) and at three times the endogenous level of the potato chips (3×);
Panelist evaluation of sample set (1): Twelve panelists rated saltiness intensity using a 15-point scale, in duplicate. The saltiness references provided were 0 points (water), 2.5 points (0.2% NaCl), 5 points (0.35% NaCl), and 8.5 points (0.5% NaCl).
as §3, with “(2): Eight” for “(3): Twelve”, “NaCl). The sensory dosage concentrations of the saltiness-enhancing compounds of the samples of sample set (2) is shown below in Table 3.” for “NaCl).”

O=C(O)c1cc(O[C@@H]2OC[C@@H](O)[C@H](O)[C@H]2O)ccc1O [GAX, Gentisic acid 5-O-β-D xylopyranoside]
salt-enhancing activity on potato chips [1]: salt-enhancing activity
saltiness enhancement in salt solutions [2]: significant saltiness enhancement
Mean Saltiness Intensity ([2]; 3.52 g NaCl + 0.44 mg GAX per L water (1x), pH 6.2-6.5, 15-point scale, eight panelists, Tukey group a (NaCl alone 5.0 b)): 6.0 a
Mean Saltiness Intensity ([2]; 3.52 g NaCl + 1.32 mg GAX per L water (3x), pH 6.2-6.5, 15-point scale, eight panelists, Tukey group ab (NaCl alone 5.0 b)): 5.4 ab

O=C(CCc1ccc(O)c(O)c1)NCCCNCCCCNCCCNC(=O)CCc1ccc(O)c(O)c1 [KA, Kukoamine A]
salt-enhancing activity on potato chips [1]: salt-enhancing activity
saltiness enhancement in salt solutions [2]: significant saltiness enhancement
Mean Saltiness Intensity ([2]; 3.52 g NaCl + 1.57 mg KA per L water (1x), pH 6.2-6.5, 15-point scale, eight panelists, Tukey group a (NaCl alone 5.1 b)): 5.9 a
Mean Saltiness Intensity ([2]; 3.52 g NaCl + 4.70 mg KA per L water (3x), pH 6.2-6.5, 15-point scale, eight panelists, Tukey group ab (NaCl alone 5.1 b)): 5.6 ab

N[C@@H](Cc1c[nH]c2ccccc12)C(=O)O [L-Trp, L-tryptophan]
salt-enhancing activity on potato chips [1]: salt-enhancing activity
Mean Saltiness Intensity ([2]; 3.52 g NaCl + 31.66 mg L-Trp per L water (1x), pH 6.2-6.5, 15-point scale, eight panelists, Tukey group a (NaCl alone 5.1 b)): 5.7 a
Mean Saltiness Intensity ([2]; 3.52 g NaCl + 94.98 mg L-Trp per L water (3x), pH 6.2-6.5, 15-point scale, eight panelists, Tukey group a (NaCl alone 5.1 b)): 5.8 a

[Cl-].[Na+] [NaCl, sodium chloride]
Mean Saltiness Intensity ([1]; 9.2 g/kg NaCl on potato chips alone, 40% salt reduction sample comparison, nine panelists, Tukey group c): 4.2 c
Mean Saltiness Intensity ([1]; 12.3 g NaCl per Kg potato chips alone, 20% salt reduction sample comparison, nine panelists, Tukey group b): 5.0 b
Mean Saltiness Intensity ([1]; 15.4 g NaCl (full salt) per Kg potato chips, 20% salt reduction sample comparison, nine panelists, Tukey group a): 6.2 a
Mean Saltiness Intensity ([1]; 15.4 g NaCl (full salt) per Kg potato chips, 40% salt reduction sample comparison, nine panelists, Tukey group a): 6.2 a
Mean Saltiness Intensity ([1]; topical coating 9.2 g NaCl per Kg potato chips, 40% reduced salt, 15-point scale, twelve panelists, Tukey group C): 4.2 C
Mean Saltiness Intensity ([1]; topical coating 12.3 g NaCl per Kg potato chips, 20% reduced salt, 15-point scale, twelve panelists, Tukey group B): 5.3 B
Mean Saltiness Intensity ([1]; topical coating 15.4 g NaCl per Kg potato chips (traditional), 15-point scale, twelve panelists, Tukey group A): 6.1 A
Mean Saltiness Intensity ([2]; 2.64 g NaCl per L water, 40% reduced salt, 15-point scale, twelve panelists, Tukey group C): 4.4 C
Mean Saltiness Intensity ([2]; 3.52 g NaCl per L water alone, control of GAX sample set, 15-point scale, eight panelists, Tukey group b): 5.0 b
Mean Saltiness Intensity ([2]; 3.52 g NaCl per L water alone, control of KA sample set, 15-point scale, eight panelists, Tukey group b): 5.1 b
Mean Saltiness Intensity ([2]; 3.52 g NaCl per L water alone, control of L-Trp sample set, 15-point scale, eight panelists, Tukey group b): 5.1 b
Mean Saltiness Intensity ([2]; 3.52 g NaCl per L water, 20% reduced salt, 15-point scale, twelve panelists, Tukey group B): 5.4 B
Mean Saltiness Intensity ([2]; 4.40 g NaCl per L water (control), 15-point scale, twelve panelists, Tukey group A): 7.2 A
